According to PubChem BioAssay (NCI):
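Dose response: 5 concentrations. Exposure: 48 h. Format: 96-well plates. Endpoint: linear interpolation; highest concentration if not reached. The concentration for full growth arrest is given as TGI.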

Assays:
Assay in all cases: DTP human tumour cell line panel, 48 h
OVCAR-4 ovarian = test system: OVCAR-4 ovarian
OVCAR-3 ovarian = test system: OVCAR-3 ovarian
SK-OV-3 ovarian = test system: SK-OV-3 ovarian
SK-MEL-28 melanoma = test system: SK-MEL-28 melanoma
SK-MEL-2 melanoma = test system: SK-MEL-2 melanoma
SF-295 CNS = test system: SF-295 CNS
IGROV1 ovarian = test system: IGROV1 ovarian
TK-10 renal = test system: TK-10 renal
UACC-257 melanoma = test system: UACC-257 melanoma
NCI-H23 lung = test system: NCI-H23 lung
K-562 leukemia = test system: K-562 leukemia
NCI/ADR-RES ovarian = test system: NCI/ADR-RES ovarian
RXF 393 renal = test system: RXF 393 renal
HCC-2998 colon = test system: HCC-2998 colon
COLO 205 colon = test system: COLO 205 colon
SN12C renal = test system: SN12C renal
SF-539 CNS = test system: SF-539 CNS
RPMI-8226 leukemia = test system: RPMI-8226 leukemia
BT-549 breast = test system: BT-549 breast
LOX IMVI melanoma = test system: LOX IMVI melanoma
OVCAR-5 ovarian = test system: OVCAR-5 ovarian
A549 NSCLC = test system: A549 NSCLC
MDA-N = test system: MDA-N
T-47D breast = test system: T-47D breast
MDA-MB-231 breast = test system: MDA-MB-231 breast
SNB-75 CNS = test system: SNB-75 CNS
KM12 colon = test system: KM12 colon
CAKI-1 renal = test system: CAKI-1 renal
SNB-19 CNS = test system: SNB-19 CNS
HT29 colon = test system: HT29 colon
HOP-92 NSCLC = test system: HOP-92 NSCLC
MCF7 breast = test system: MCF7 breast
UO-31 renal = test system: UO-31 renal
MOLT-4 leukemia = test system: MOLT-4 leukemia
PC-3 prostate = test system: PC-3 prostate
UACC-62 melanoma = test system: UACC-62 melanoma
HCT-116 colon = test system: HCT-116 colon
ACHN renal = test system: ACHN renal
NCI-H460 lung = test system: NCI-H460 lung
M14 melanoma = test system: M14 melanoma
HOP-62 NSCLC = test system: HOP-62 NSCLC
U251 CNS = test system: U251 CNS
MALME-3M melanoma = test system: MALME-3M melanoma
SR leukemia = test system: SR leukemia
CCRF-CEM leukemia = test system: CCRF-CEM leukemia
MDA-MB-435 = test system: MDA-MB-435
DU-145 prostate = test system: DU-145 prostate
SF-268 CNS = test system: SF-268 CNS
786-0 renal = test system: 786-0 renal
SK-MEL-5 melanoma = test system: SK-MEL-5 melanoma
HS 578T breast = test system: HS 578T breast
A498 renal = test system: A498 renal
HCT-15 colon = test system: HCT-15 colon
SW-620 colon = test system: SW-620 colon
NCI-H522 lung = test system: NCI-H522 lung
NCI-H226 lung = test system: NCI-H226 lung
EKVX NSCLC = test system: EKVX NSCLC
OVCAR-8 ovarian = test system: OVCAR-8 ovarian

Molecule `CCCCCCCC1(N=[N+]=[N-])C(=O)Nc2ccccc2C1=O` (stereo not given) has a TGI (OVCAR-4 ovarian) of 29.8 µM, a TGI (OVCAR-3 ovarian) of 29.6 µM and a TGI (SK-OV-3 ovarian) of 30.4 µM. It also gave a TGI (SK-MEL-28 melanoma) of 30.7 µM, a TGI (SK-MEL-2 melanoma) of 32.7 µM and a TGI (SF-295 CNS) of 36.2 µM. The TGI (IGROV1 ovarian) was 25.6 µM, the TGI (TK-10 renal) was 31 µM and the TGI (UACC-257 melanoma) was 41.2 µM. It also gave a TGI (NCI-H23 lung) of 40.5 µM, a TGI (K-562 leukemia) of 61.3 µM and a TGI (NCI/ADR-RES ovarian) of 48.5 µM. It also gave a TGI (RXF 393 renal) of 25.1 µM, a TGI (HCC-2998 colon) of 39.9 µM and a TGI (COLO 205 colon) of 36.3 µM. The TGI (SN12C renal) was 34.4 µM, the TGI (SF-539 CNS) was 29.6 µM and the TGI (RPMI-8226 leukemia) was > 100 µM. The TGI (BT-549 breast) was 30.4 µM, the TGI (LOX IMVI melanoma) was 26.9 µM and the TGI (OVCAR-5 ovarian) was 34 µM. For the same molecule, the TGI (A549 NSCLC) was 28 µM, the TGI (MDA-N) was 37.8 µM and the TGI (T-47D breast) was 35 µM. It also gave a TGI (MDA-MB-231 breast) of 41.3 µM, a TGI (SNB-75 CNS) of 27.1 µM and a TGI (KM12 colon) of 57.7 µM. For the same molecule, the TGI (CAKI-1 renal) was 27.8 µM, the TGI (SNB-19 CNS) was 32.4 µM and the TGI (HT29 colon) was 56.8 µM. For the same molecule, the TGI (HOP-92 NSCLC) was 27.2 µM, the TGI (MCF7 breast) was 34.6 µM and the TGI (UO-31 renal) was 25.3 µM. The TGI (MOLT-4 leukemia) was 35.2 µM, the TGI (PC-3 prostate) was 24.1 µM and the TGI (UACC-62 melanoma) was 23.8 µM. It also gave a TGI (HCT-116 colon) of 32.6 µM, a TGI (ACHN renal) of 28.6 µM and a TGI (NCI-H460 lung) of 53.6 µM. For the same molecule, the TGI (M14 melanoma) was 33.2 µM, the TGI (HOP-62 NSCLC) was 32 µM and the TGI (U251 CNS) was 28.8 µM. The TGI (MALME-3M melanoma) was 33.4 µM, the TGI (SR leukemia) was 90 µM and the TGI (CCRF-CEM leukemia) was 95.4 µM. It also gave a TGI (MDA-MB-435) of 34.2 µM, a TGI (DU-145 prostate) of 31.8 µM and a TGI (SF-268 CNS) of 33.3 µM. The TGI (786-0 renal) was 32 µM, the TGI (SK-MEL-5 melanoma) was 28.4 µM and the TGI (HS 578T breast) was 42 µM. For the same molecule, the TGI (A498 renal) was 14 µM, the TGI (HCT-15 colon) was 47.3 µM and the TGI (SW-620 colon) was 26.4 µM.
`Cc1ccc(/C(C#N)=C/c2cccc([N+](=O)[O-])c2)cc1` was tested, and the TGI (OVCAR-4 ovarian) was > 100 µM, the TGI (OVCAR-3 ovarian) was > 100 µM and the TGI (SK-OV-3 ovarian) was > 100 µM. For the same molecule, the TGI (SK-MEL-28 melanoma) was > 100 µM, the TGI (SK-MEL-2 melanoma) was > 100 µM and the TGI (SF-295 CNS) was 67.3 µM. The TGI (IGROV1 ovarian) was > 100 µM, the TGI (TK-10 renal) was > 100 µM and the TGI (UACC-257 melanoma) was > 100 µM. The TGI (NCI-H23 lung) was > 100 µM, the TGI (K-562 leukemia) was > 100 µM and the TGI (NCI/ADR-RES ovarian) was > 100 µM. The TGI (RXF 393 renal) was 41 µM, the TGI (HCC-2998 colon) was > 100 µM and the TGI (COLO 205 colon) was > 100 µM. The TGI (SN12C renal) was > 100 µM, the TGI (SF-539 CNS) was > 100 µM and the TGI (RPMI-8226 leukemia) was > 100 µM. For the same molecule, the TGI (BT-549 breast) was > 100 µM, the TGI (LOX IMVI melanoma) was > 100 µM and the TGI (OVCAR-5 ovarian) was > 100 µM. For the same molecule, the TGI (A549 NSCLC) was > 100 µM, the TGI (MDA-N) was > 100 µM and the TGI (T-47D breast) was > 100 µM. For the same molecule, the TGI (MDA-MB-231 breast) was 52.8 µM, the TGI (SNB-75 CNS) was 39.6 µM and the TGI (NCI-H522 lung) was > 100 µM. For the same molecule, the TGI (KM12 colon) was > 100 µM, the TGI (CAKI-1 renal) was > 100 µM and the TGI (SNB-19 CNS) was > 100 µM. The TGI (HT29 colon) was > 100 µM, the TGI (HOP-92 NSCLC) was > 100 µM and the TGI (MCF7 breast) was > 100 µM. For the same molecule, the TGI (UO-31 renal) was > 100 µM, the TGI (PC-3 prostate) was > 100 µM and the TGI (UACC-62 melanoma) was > 100 µM. The TGI (HCT-116 colon) was > 100 µM, the TGI (ACHN renal) was > 100 µM and the TGI (NCI-H460 lung) was > 100 µM. For the same molecule, the TGI (M14 melanoma) was > 100 µM, the TGI (HOP-62 NSCLC) was > 100 µM and the TGI (NCI-H226 lung) was > 100 µM. For the same molecule, the TGI (U251 CNS) was > 100 µM, the TGI (MALME-3M melanoma) was > 100 µM and the TGI (SR leukemia) was > 100 µM. The TGI (MDA-MB-435) was > 100 µM, the TGI (DU-145 prostate) was > 100 µM and the TGI (SF-268 CNS) was > 100 µM. The TGI (786-0 renal) was > 100 µM, the TGI (EKVX NSCLC) was > 100 µM and the TGI (SK-MEL-5 melanoma) was > 100 µM. The TGI (HS 578T breast) was 65 µM, the TGI (OVCAR-8 ovarian) was > 100 µM and the TGI (A498 renal) was > 100 µM. The TGI (HCT-15 colon) was > 100 µM and the TGI (SW-620 colon) was > 100 µM.
